Laboratory results published in PubChem BioAssay AID1919004 (Molecular Pharmacology Branch, DTP, NCI, 2023).

System: 883617-216-R-J1-PDC complex spheroids, growth, % test/control
Assay: Anticancer human tumor 883617-216-R-J1-PDC patient-derived bladder carcinoma cell line growth inhibition [AhR]
Settings: for IC50: curve of first compound; for viability, T/C: stronger effect = lower value
Procedure, shortened: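 Agents were dosed in half-log steps down from roughly clinical Cmax, or from 10 microM where Cmax was unknown, alone and with AhR antagonists. Read-out: percent test/control growth of tumor spheroids containing HUVEC and MSC stromal cells.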

[1] = second compound 0.1 µM, first compound 0.0316 µM
[2] = second compound 0.1 µM, first compound 0.1 µM
[3] = second compound 0.1 µM, first compound 0.316 µM
[4] = second compound 0.1 µM, first compound 1 µM
[5] = second compound 0.1 µM, first compound 3.16 µM
[6] = second compound 0.1 µM, first compound 10 µM
[7] = second compound 0.316 µM, first compound 0.0316 µM
[8] = second compound 0.316 µM, first compound 0.1 µM
[9] = second compound 0.316 µM, first compound 0.316 µM
[10] = second compound 0.316 µM, first compound 1 µM
[11] = second compound 0.316 µM, first compound 3.16 µM
[12] = second compound 0.316 µM, first compound 10 µM
[13] = second compound 1 µM, first compound 0.0316 µM
[14] = second compound 1 µM, first compound 0.1 µM
[15] = second compound 1 µM, first compound 0.316 µM
[16] = second compound 1 µM, first compound 1 µM
[17] = second compound 1 µM, first compound 3.16 µM
[18] = second compound 1 µM, first compound 10 µM
[19] = second compound 3.16 µM, first compound 0.0316 µM
[20] = second compound 3.16 µM, first compound 0.1 µM
[21] = second compound 3.16 µM, first compound 0.316 µM
[22] = second compound 3.16 µM, first compound 1 µM
[23] = second compound 3.16 µM, first compound 3.16 µM
[24] = second compound 3.16 µM, first compound 10 µM
[25] = second compound 10 µM, first compound 0.0316 µM
[26] = second compound 10 µM, first compound 0.1 µM
[27] = second compound 10 µM, first compound 0.316 µM
[28] = second compound 10 µM, first compound 1 µM
[29] = second compound 10 µM, first compound 3.16 µM
[30] = second compound 10 µM, first compound 10 µM
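Also: exposure lasted 7 days after dosing on day 3 of spheroid growth.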

Nc1ncn(C2CC(O)C(CO)S2)c(=O)n1 (stereo not given) + CC(CO)NC(=O)c1cc(-c2ccc(Cl)cc2)nn(-c2cnn(C)c2)c1=O
IC50 (second compound 0.1 µM): > 300 nM
IC50 (second compound 0.316 µM): 288 nM
IC50 (second compound 1 µM): > 300 nM
IC50 (second compound 3.16 µM): > 300 nM
IC50 (second compound 10 µM): > 300 nM
viability, T/C (second compound 0.1 µM, first compound 0.000949 µM): 65.6%
viability, T/C (second compound 0.1 µM, first compound 0.003 µM): 57.9%
viability, T/C (second compound 0.1 µM, first compound 0.00949 µM): 65%
viability, T/C (second compound 0.1 µM, first compound 0.03 µM): 76.6%
viability, T/C (second compound 0.1 µM, first compound 0.0949 µM): 80.2%
viability, T/C (second compound 0.1 µM, first compound 0.3 µM): 85.5%
viability, T/C (second compound 0.316 µM, first compound 0.000949 µM): 72.1%
viability, T/C (second compound 0.316 µM, first compound 0.003 µM): 112%
viability, T/C (second compound 0.316 µM, first compound 0.00949 µM): 70.8%
viability, T/C (second compound 0.316 µM, first compound 0.03 µM): 104%
viability, T/C (second compound 0.316 µM, first compound 0.0949 µM): 65.7%
viability, T/C (second compound 0.316 µM, first compound 0.3 µM): 49.2%
viability, T/C (second compound 1 µM, first compound 0.000949 µM): 69.9%
viability, T/C (second compound 1 µM, first compound 0.003 µM): 66.6%
viability, T/C (second compound 1 µM, first compound 0.00949 µM): 78.5%
viability, T/C (second compound 1 µM, first compound 0.03 µM): 118%
viability, T/C (second compound 1 µM, first compound 0.0949 µM): 43.9%
viability, T/C (second compound 1 µM, first compound 0.3 µM): 89.8%
viability, T/C (second compound 3.16 µM, first compound 0.000949 µM): 71%
viability, T/C (second compound 3.16 µM, first compound 0.003 µM): 80.3%
viability, T/C (second compound 3.16 µM, first compound 0.00949 µM): 75.6%
viability, T/C (second compound 3.16 µM, first compound 0.03 µM): 76%
viability, T/C (second compound 3.16 µM, first compound 0.0949 µM): 72.2%
viability, T/C (second compound 3.16 µM, first compound 0.3 µM): 92.9%
viability, T/C (second compound 10 µM, first compound 0.000949 µM): 67.4%
viability, T/C (second compound 10 µM, first compound 0.003 µM): 74.7%
viability, T/C (second compound 10 µM, first compound 0.00949 µM): 76.2%
viability, T/C (second compound 10 µM, first compound 0.03 µM): 71.9%
viability, T/C (second compound 10 µM, first compound 0.0949 µM): 102%
viability, T/C (second compound 10 µM, first compound 0.3 µM): 111%

COc1ccc([C@@H](O)c2cc(-c3ncnc4cc(N5CCOCC5)ccc34)c(F)cc2Cl)nn1 + Cc1cncc(-c2nc(NCCc3c[nH]c4ccccc34)c3ncn(C(C)C)c3n2)c1
IC50 (second compound 0.1 µM): 2650 nM
IC50 (second compound 0.316 µM): 2400 nM
IC50 (second compound 1 µM): 4070 nM
IC50 (second compound 3.16 µM): 3530 nM
IC50 (second compound 10 µM): < 31.6 nM
viability, T/C [1]: 89.8%
viability, T/C [2]: 82.6%
viability, T/C [3]: 78.2%
viability, T/C [4]: 67.5%
viability, T/C [5]: 45.5%
viability, T/C [6]: 34.1%
viability, T/C [7]: 93.6%
viability, T/C [8]: 103%
viability, T/C [9]: 87.9%
viability, T/C [10]: 67.1%
viability, T/C [11]: 45.6%
viability, T/C [12]: 35.3%
viability, T/C [13]: 100%
viability, T/C [14]: 95.4%
viability, T/C [15]: 85.9%
viability, T/C [16]: 76.7%
viability, T/C [17]: 50.7%
viability, T/C [18]: 39.3%
viability, T/C [19]: 103%
viability, T/C [20]: 102%
viability, T/C [21]: 94.9%
viability, T/C [22]: 79.9%
viability, T/C [23]: 51.4%
viability, T/C [24]: 33.3%
viability, T/C [25]: 39.6%
viability, T/C [26]: 39.3%
viability, T/C [27]: 38.9%
viability, T/C [28]: 30.4%
viability, T/C [29]: 19.2%
viability, T/C [30]: 10.9%

COc1cc(Nc2ncc3c(n2)-c2ccc(Cl)cc2C(c2c(F)cccc2OC)=NC3)ccc1C(=O)O + Cc1ccccc1N=Nc1ccc(NC(=O)c2ccnn2C)c(C)c1
IC50 (second compound 0.1 µM): > 10000 nM
IC50 (second compound 0.316 µM): > 10000 nM
IC50 (second compound 1 µM): > 10000 nM
IC50 (second compound 3.16 µM): > 10000 nM
IC50 (second compound 10 µM): > 10000 nM
viability, T/C [1]: 83.3%
viability, T/C [2]: 78.7%
viability, T/C [3]: 74.5%
viability, T/C [4]: 63.2%
viability, T/C [5]: 71.1%
viability, T/C [6]: 63.6%
viability, T/C [7]: 72.7%
viability, T/C [8]: 83.1%
viability, T/C [9]: 64.6%
viability, T/C [10]: 62.6%
viability, T/C [11]: 66.3%
viability, T/C [12]: 63.2%
viability, T/C [13]: 73.9%
viability, T/C [14]: 73.7%
viability, T/C [15]: 67.2%
viability, T/C [16]: 72%
viability, T/C [17]: 63.7%
viability, T/C [18]: 53.7%
viability, T/C [19]: 67.4%
viability, T/C [20]: 76.3%
viability, T/C [21]: 69.6%
viability, T/C [22]: 62.1%
viability, T/C [23]: 67%
viability, T/C [24]: 56.4%
viability, T/C [25]: 68.9%
viability, T/C [26]: 67.7%
viability, T/C [27]: 67.8%
viability, T/C [28]: 61.3%
viability, T/C [29]: 58.7%
viability, T/C [30]: 50.8%
